Common to all, as to format: in vivo, BALB/c mice
In assay [1] the test system is Trypanosoma cruzi. Description: Parasitemia by direct microscopic count of blood in mice infected with Trypanosoma cruzi. To be noted: 3-21 dpi. The procedure: (§1) Male BALB/c mice (approximately 7-8 weeks) were infected intraperitoneally with 10^4 parasites per mouse. Treatment started 24 hours after infection. The administration of vitamin C (i.e., L-ascorbic acid), vitamin K3 (i.e., 2-methyl-1,4-naphthoquinone or menadione), APATONE®, and benznidazole, alone or in combination, were administered once a day orally in different concentrations.
(§2) The mice were divided into the following groups and each group contained seven mice: • i. infected and not treated; • ii. infected and treated with 200 mg/kg of vitamin C; • iii. infected and treated with 3.5 mg/kg of vitamin K3; • iv. infected and treated with APATONE® (200 mg/kg of vitamin C and 3.5 mg/kg of vitamin K3); • v. infected and treated with APATONE® (200 mg/kg of vitamin C and 3.5 mg/kg of vitamin K3) plus 5 mg/kg benznidazole; • vi. infected and treated with benznidazole at 5 mg/kg; • vii. infected and treated with benznidazole at 100 mg/kg; and • viii. not infected and not treated.
Parasitemia levels were individually checked every day starting from 3 days postinfection (dpi) over a 21-day period by direct microscopic analysis of 5 μL blood drawn by puncture of the tail tip of each mouse. The parasites present in 50 fields were counted in 40× objective. Mortality was checked daily until 21 dpi and was expressed as a percentage of survival. […]

Assay [2] relates to Trypanosoma cruzi. Description: Survival/mortality of mice with acute Trypanosoma cruzi infection. To be noted: for mortality: vitamin C 200 mg/kg or vitamin K3 3.5 mg/kg alone, orally once a day. As for the experimental part:
as §1, §2
Parasitemia levels were individually checked every day starting from 3 days postinfection (dpi) over a 21-day period by direct microscopic analysis of 5 μL blood drawn by puncture of the tail tip of each mouse. The parasites present in 50 fields were counted in 40× objective. Mortality was checked daily until 21 dpi and was expressed as a percentage of survival. All assays were carried out after the approval of the Ethical Conduct on the use of Animals in Experiments (CEAE) of UE111, protocol number CEUA 6642060717.

A further assay relates to IL-6. Description: Heart cytokine level (cytokine bead array, flow cytometry) in T. cruzi infected mice: IL-6. The procedure:
(§3) Cytokine analysis was performed on the mice infected with T. cruzi. A cytokine bead (CBA) kit was used to quantify the levels of Th1 cytokines (IL-2, TNF-α, and INF-γ), Th2 (IL-4, IL-5, and IL-10A), and Th17 (IL-17) by flow cytometry. Seven bead populations with different fluorescence intensities were conjugated to a specific capture antibody for each cytokine, mixed to the CBA and read […] FL3 channel of a FACSCalibur flow cytometer. The populations of beads were visualized according to their respective fluorescence intensities: from less bright to brighter.
(§4) Acquisition tubes were prepared with: 50 μL of a sample, 50 μL of beads, and 50 μL of Th1/Th2/Th17 PE (Mouse Th1/Th2/Th17 PE Detection Reagent/1 vial, 4 mL). The same procedure was performed to obtain a standard curve. The samples in the tubes were homogenized and incubated for three hours at room temperature in dark. The data acquisition and analysis were performed using a FACSCalibur flow cytometer equipped with a CellQuest software.
(§5) The levels of proinflammatory (IL-6, TNF-α, INF-γ, IL-2, and IL-17) and anti-inflammatory cytokines (IL-4 and IL-10) in heart (FIG. 3) in blood were determined on the mice infected with T. cruzi. […] However, the levels of IL-6 and TNF-α in this group were still high compared with the uninfected and untreated group. […] Thus, it is likely that the high levels of IL-6 and TNF-α in the mice infected with T. cruzi and treated with benznidazole (5 mg) are related to the inflammatory process induced by the parasite in the bloodstream. […] Thus, it is likely that the high levels of IL-6 and TNF-α in the mice infected with T. cruzi and treated with benznidazole (100 mg) are related to the proinflammatory activity of benznidazole (a side effect). […] The levels of IL-6, TNF-α, and IFN-γ in the group treated with APATONE® and benznidazole (5 mg/kg/day) in combination are similar to the levels of IL-6, TNF-α and IFN-γ in the uninfected and untreated group.
Background: Flow cytometry measures light scatter and fluorescence of single cells or particles in a stream.

In the next assay the test system is TNF-α. Description: Heart cytokine level (cytokine bead array, flow cytometry) in T. cruzi infected mice: TNF-α. The procedure:
as §3, §4, §5

The mark [3] stands for this setting: benznidazole alone at 5 mg/kg, seven mice per group, until 21 dpi.

The results in this text go back to patent US12295957B2, “Ascorbic acid and quinone compounds in combination with an antiparasitic agent for treating a parasitic disease” (IC-MedTech Corp., priority 2018, dated 2025).

“Also recorded” adds a separate entry of the source.

As for `O=C(Cn1ccnc1[N+](=O)[O-])NCc1ccccc1` [benznidazole], the “parasites in the bloodstream (parasitemia)” value is given as “did not decrease the amount of parasites” in the assay on Trypanosoma cruzi [1] (benznidazole alone at 5 mg/kg orally once a day, 5 mg/kg) and “no parasite was observed; also recorded: no parasite detected” in the assay on Trypanosoma cruzi [1] (benznidazole alone at 100 mg/kg orally once a day, 100 mg/kg). The mice remaining in the assay on Trypanosoma cruzi [2] (setting [3]) turned out to be 4 mice. The mice that died entry is given as “Three mice died” in the assay on Trypanosoma cruzi [2] (setting [3]) and “No mice died” with Trypanosoma cruzi [2] (benznidazole alone at 100 mg/kg, until 21 dpi). Besides, the “level of IL-6 in heart compared with the infected and untreated group” value with IL-6 (benznidazole at 5 mg) and in the assay with IL-6 (benznidazole at 100 mg) was “significant decrease” throughout. Besides, the “level of IL-6 in heart compared with the uninfected and untreated group” value with IL-6 (benznidazole at 5 mg) and in the assay with IL-6 (benznidazole at 100 mg) was “still high” each time. In addition, the “level of TNF-α in heart compared with the infected and untreated group” value in the assay on TNF-α (benznidazole at 5 mg) and with TNF-α (benznidazole at 100 mg) was “significant decrease” throughout. In addition, the “level of TNF-α in heart compared with the uninfected and untreated group” value in the assay with TNF-α (benznidazole at 5 mg) and in the assay with TNF-α (benznidazole at 100 mg) was “still high” each time.
Turning to `O=C1O[C@H]([C@@H](O)CO)C(O)=C1O` [vitamin C, L-ascorbic acid], the mortality entry in the assay on Trypanosoma cruzi [2] was “died from day 14”.
Same read-out and setting: the same measure for `CC1=CC(=O)c2ccccc2C1=O` [vitamin K3, 2-methyl-1,4-naphthoquinone]: “died from day 14”.
